Where two headings read alike, the source gives them in different places.
What was measured:
[1] = test system: dengue virus serotype II; assay: BHK-DV2 replication determination (qPCR of viral genome copy number in culture supernatant); assay type: cell-based; details: 96 h, BHK cells infected with DV2 (MOI=0.05), 4 days culture, viral RNA copy number in supernatant by qPCR
Experimental: (§1) The Inhibitive Activity Test of the Quinazoline Compounds of the Present Invention Against Dengue Virus Serotype II and Hepatitis C Virus of Flaviviridae:
(§2) The test results of the inhibitive activity of the quinazoline compounds of the present invention against dengue virus serotype II and Hepatitis C virus of Flaviviridae are listed in table 1.
BHK-DV2-Replication Determination:
BHK cells were inoculated on a 96-well plate. 24 hours later, DV2 viruses were added to infect for 2 h (MOI=0.05), and then viral liquid was washed away. After fresh culture medium was replaced, compounds with different concentrations were added respectively, including infection control without addition of compounds and normal MK control free from infection. After 4 days culture, the supernatant of culture fluid was sucked and centrifuged at 1000RCF for 5 min to remove the cell precipitate. Virus RNA was extracted from the supernatant by using a kit, and then reverse transcriped to be as cDNA, which was evaluated by qPCR method to determine the copy number of the virogene group in the supernatant.
(§3) The inhibitive effect of the compounds on the copy number of the viruses in the culture supernatant of the BHK infected by DV2 directly reflects the inhibitive effect of the compounds against the generation of progeny viruses. In the HCV detection, the inhibitive effect of the compounds against intracellular replication of the HCV viruses can be visually determined via fluoroscopy. Meanwhile, as the only cell model which can currently be infected in vitro, Huh7.5.1 cell model infected by HCV viruses can maximumly reproduce the infection and replication process of Hepatitis C virus in vivo.

[2] = test system: Hepatitis C virus; assay: Huh7.5.1-HCV determination (J399EM NS5A-EGFP fluorescence); assay type: cell-based
From the text: as §1, §2
Huh7.5.1-HCV Determination:
Huh7.5.1 cell, which is currently the only cell model which can be in vitro infected by HCV viruses, can be infected by HCV viruses in vitro, and generates infective progeny viruses. J399EM is a HCV full-length mutant strain transfected by EGFP, and can generate viruses which have the same infectivity as wild-type JFH-1. Meanwhile, NS5A-EGFP fusion protein fluorescence can be observed directly in the infected cells by inserting the EGFP coding sequence into NS5A region. In this experiment, Huh7.5.1 cells were inoculated on a 96-well plate and cultured under 5% CO2 at 37° C. for 24 h. Huh7.5.1 cells were infected by J399EM virus supernatant (moi≈0.1). Meanwhile, cell control wells free from infection were included. The infected cells were washed with PBS after 8 h infection. Samples with different concentrations were added into Huh7.5.1 cells infected by J399EM viruses. Each concentration was set double wells, and control well without sample was included. The tested samples were diluted to six gradient concentrations and added respectively, and the cells were cultured for another 72 h. After the cells were treated by the samples for 72 hours, the relative intensity of fluorescence (RFU) was recorded at an excitation wavelength of 488 nm and an emission wavelength of 516 nm on a fluorescent ELISA Reader to detect the inhibition effect of the samples against HCV. The inhibition rate against HCV virus was calculated according to equation.
as §3

[3] = Hepatitis C virus, Huh-7.5.1, 72 h, read-out: Huh7.5.1-HCV (replication) IC50

SMILES | IC50 [1] [nM] | IC50 [2, 3] [µM] | IC50 ([2]; Hepatitis C virus, read-out: half effective inhibitive concentration against HCV virus tested in vitro) [µM] | IC50 ([2]; common control compounds, HCV in vitro, read-out: half effective inhibitive concentration against HCV virus tested in vitro) [µM]
Nc1nc(N)c2c(OCc3ccccc3)cccc2n1 [Yhhu-1046, 5-benzyloxy-2,4-diaminoquinazoline] | 340 | 2.36 | – | –
CC(C)(C)Oc1cccc2nc(N)nc(N)c12 [Yhhu-1036, 5-tert-butoxy-2,4-diaminoquinazoline] | 9 | 1.23 | – | –
Nc1nc(N)c2c(OCC(F)(F)F)cccc2n1 [Yhhu-1148, 5-(2,2,2-trifluoroethoxy-2,4-diaminoquinazoline] | 40 | 3.12 | – | –
CCCCCCCCOc1cccc2nc(N)nc(N)c12 [Yhhu-1411, 5-n-octyloxy-2,4-diaminoquinazoline] | 180 | 1.57 | – | –
COc1ccc(Oc2cccc3nc(N)nc(N)c23)cc1 [Yhhu-1152, 5-(4-methoxyphenoxy)-2,4-diaminoquinazoline] | 3110 | 24.7 | – | –
CCCCOc1cccc2nc(N)nc(N)c12 [Yhhu-1145, 5-n-butoxy-2,4-diaminoquinazoline] | 110 | 2.34 | – | –
COc1ccccc1Oc1cccc2nc(N)nc(N)c12 [Yhhu-0969, 5-(2-methoxyphenoxy)-2,4-diaminoquinazoline] | 1120 | – | – | –
Nc1nc(N)c2c(Oc3cccc(Cl)c3)cccc2n1 [Yhhu-1053, 5-(3-chlorophenoxy)-2,4-diamino quinazoline] | 380 | 0.79 | – | –
Nc1nc(N)c2c(OC3CCCCC3)cccc2n1 [Yhhu-1147, 5-cyclohexyloxy-2,4-diaminoquinazoline] | 100 | 4.69 | – | –
NC(=O)c1ncn([C@@H]2O[C@H](CO)[C@@H](O)[C@H]2O)n1 [Ribavirin, reference compound] | – | – | 20 | –
COc1c(C)c2c(c(O)c1C/C=C(\C)CCC(=O)O)C(=O)OC2 [mycoplienolic acid, reference compound] | – | – | – | 1.25
Nc1ccc(Oc2cccc3nc(N)nc(N)c23)cc1 [Yhhu-1150, 5-(4-aminophenoxy)-2,4-diaminoquinazoline] | 490 | 7.25 | – | –
Nc1nc(N)c2c(OCCN3CCCC3)cccc2n1 [Yhhu-1041, 5-(2-(1-pyrrolidinyl)ethoxy)-2,4-diaminoquinazoline] | 7130 | 12.3 | – | –
Nc1nc(N)c2c(OC3CCCC3)cccc2n1 [Yhhu-1056, 5-cyclopentyloxy-2,4-diaminoquinazoline] | > 25000 | 0.98 | – | –
CC(C)CCOc1cccc2nc(N)nc(N)c12 [Yhhu-1412, 5-isoamyloxy-2,4-diaminoquinazoline] | 100 | 1.74 | – | –
Nc1nc(N)c2c(OC34CC5CC(CC(C5)C3)C4)cccc2n1 [Yhhu-1146, 5 (1-adamantyloxy)-2,4-diaminoquinazoline] | > 25000 | 5.13 | – | –
Nc1nc(N)c2c(Oc3ccc(Cl)cc3)cccc2n1 [Yhhu-0968, 5-(4-chlorophenoxy)-2,4-diamino quinazoline] | > 5000 | – | – | –
Nc1nc(N)c2c(Oc3ccccc3)cccc2n1 [Yhhu-0970, 5-phenoxy-2,4-diaminoquinazoline] | 430 | 3.18 | – | –
CC(C)(C)c1ccc(Oc2cccc3nc(N)nc(N)c23)cc1 [Yhhu-1035, 5-(4-tert-butylphenoxy)-2,4-diaminoquinazoline] | 1970 | 4.75 | – | –
CCOc1cccc2nc(N)nc(N)c12 [Yhhu-1149, 5-ethoxy-2,4-diaminoquinazoline] | 160 | 3.94 | – | –
Nc1nc(N)c2c(OCc3cccnc3)cccc2n1 [Yhhu-1151, 5-(3-pyridinemethoxy)-2,4-diaminoquinazoline] | 430 | 7.84 | – | –
CC(C)(C)COc1cccc2nc(N)nc(N)c12 [Yhhu-1413, 5-neooamyloxy-2,4-diaminoquinazoline] | 160 | 3.75 | – | –
COc1cccc2nc(N)nc(N)c12 [Yhhu-0967, 5-methoxy-2,4-diaminoquinazoline] | 760 | 5.73 | – | –

Reference: US9133138B2, “Use of a quinazoline compound in preparing a medicament against flaviviridae virus” (priority 2010, dated 2015)
